What all share (assay type): cell-based
In one experiment the test system is HIV-1NL4-3 pseudovirus. To be noted: 100 TCID50, TZM-bl cells, 48 h, luciferase, mean ± SD of three independent experiments, SD, read-out: IC50 Entry. On the procedure:
(§1) The inhibition of peptides on the HIV-1 entry was determined by single-cycle infection assay as described previously. Briefly, HIV-1 pseudovirus was generated by cotransfecting 293 T cells with an Env-expressing plasmid and a backbone plasmid pSG3^Δenv that encodes Env-defective, luciferase-expressing HIV-1 genome. The supernatants were harvested and filtered 48 h after transfection and 50% tissue culture infectious dose (TCID50) was determined in TZM-bl cells. The peptides were prepared with 3-fold dilutions and mixed with 100 TCID50 viruses and then incubated 1 h at room temperature. The mixture was added to TZM-bl cells (10^4/well) and incubated 48 h at 37°C. The luciferase activity was measured using luciferase assay reagents and a Luminescence Counter (Promega).

The test system of the next experiment is wild-type HIV-1NL4-3. To be noted: wild-type HIV-1NL4-3, 100 TCID50, TZM-bl cells, two days, luciferase; mean ± SD of three independent experiments; SD; read-out: IC50 Replication. On the procedure: The inhibition of peptides on HIV-1 replication was determined by a molecular cloned wild-type HIV-1NL4–3. In brief, the virus stock was harvested and quantified 48 h post-transfection. 100 TCID50 viruses were used to infect TZM-bl cells in the presence or absence of serially diluted peptides. Two days post-infection, the cells were harvested and lysed in reporter lysis buffer and the luciferase activity was measured as described above.

Experiment [1] relates to molecular clone of HIV-1NL4-3. As to the kind of experiment: In vitro selection of HIV-1 resistance in MT-4 cells. Conditions: 1.5-2 fold escalating concentrations, 22 passages in 4 months. Here is the method: The in vitro selection of HIV-1 resistance to peptide inhibitors was performed as described previously. Briefly, MT-4 cells were seeded at 1 × 10^4 in RPMI 1640 medium containing 10% fetal bovine serum on 12-well plates. The molecular clone of HIV-1NL4–3 was used to infect the cells in the presence or absence of diluted peptide inhibitors (SC29EK, MT-SC29EK, SC22EK and MT-SC22EK). The cells were incubated at 37°C with 5% CO2 until an extensive cytopathic effect was observed. The culture supernatants were harvested and used for next passage on fresh MT-4 cells with 1.5-2 fold increasing concentrations of peptide. Cells and supernatant were harvested at regular time points and stored at -80°C.

A further experiment relates to HIV-1 NL4-3 WT. Nature of the experiment: Inhibition of T20-resistant HIV-1 variants panel: WT. To be noted: mean ± SD of three independent experiments, SD. On the procedure:
as §1

In a further experiment the test system is HIV-1 NL4-3 I37T. As to the kind of experiment: Inhibition of T20-resistant HIV-1 variants: I37T. Conditions: mean ± SD of three independent experiments, SD. Here is the method: as §1
A further experiment has as its system HIV-1 NL4-3 V38A. As to the kind of experiment: Inhibition of T20-resistant HIV-1 variants: V38A. Conditions: mean ± SD of three independent experiments, SD. Here is the method:
as §1

For another experiment, the system named is HIV-1 NL4-3 V38M. As to the kind of experiment: Inhibition of T20-resistant HIV-1 variants: V38M. Conditions: mean ± SD of three independent experiments, SD. On the procedure:
as §1

The test system of another experiment is HIV-1 NL4-3 Q40H. Nature of the experiment: Inhibition of T20-resistant HIV-1 variants: Q40H. To be noted: mean ± SD of three independent experiments, SD. On the procedure:
as §1

The next experiment concerns HIV-1 NL4-3 N43K. Nature of the experiment: Inhibition of T20-resistant HIV-1 variants: N43K. Conditions: mean ± SD of three independent experiments, SD. Here is the method:
as §1

The test system of another experiment is HIV-1 NL4-3 D36S/V38M. Nature of the experiment: Inhibition of T20-resistant HIV-1 variants: D36S/V38M. Conditions: mean ± SD of three independent experiments, SD. On the procedure: as §1
A further experiment has as its system HIV-1 NL4-3 I37T/N43K. Nature of the experiment: Inhibition of T20-resistant HIV-1 variants: I37T/N43K. To be noted: mean ± SD of three independent experiments. On the procedure:
as §1

Peptide text beside a SMILES is read from it. Bounds are passed on as bounds.

The IC50 is the concentration that gives 50% inhibition. With `CC[C@H](C)[C@H](NC(=O)[C@H](CC(C)C)NC(=O)[C@H](CCC(=O)O)NC(=O)[C@H](CCC(=O)O)NC(=O)[C@@H](NC(=O)[C@H](CCCCN)NC(=O)[C@H](CCCCN)NC(=O)[C@@H](NC(=O)[C@H](Cc1ccc(O)cc1)NC(=O)[C@H](CCC(=O)O)NC(=O)[C@H](CCC(=O)O)NC(=O)[C@@H](NC(=O)[C@H](CCCCN)NC(=O)[C@H](CCCCN)NC(=O)[C@H](CC(=O)O)NC(=O)[C@H](Cc1c[nH]c2ccccc12)NC(=O)[C@H](CCC(=O)O)NC(=O)[C@H](CCC(=O)O)NC(=O)[C@H](Cc1c[nH]c2ccccc12)NC(=O)[C@@H](NC(=O)[C@H](CCSC)NC(C)=O)[C@@H](C)O)[C@@H](C)CC)[C@@H](C)O)[C@@H](C)CC)C(=O)N[C@@H](CCCCN)C(=O)N[C@@H](CCCCN)C(=O)N[C@@H](CO)C(N)=O` [MT-SC22EK] (Ac-MTWEEWDKKIEEYTKKIEELIKKS-NH2), the IC50 was 2.1 ± 0.2 nM in the experiment on HIV-1NL4-3 pseudovirus and 1.1 ± 0.1 nM with wild-type HIV-1NL4-3. Further, the “peptide concentration reached during in vitro selection of resistant virus” value in experiment [1] is listed as ~100 nM.

In the case of `CC[C@H](C)[C@H](NC(=O)[C@H](CCC(=O)O)NC(=O)[C@H](CCCNC(=N)N)NC(=O)[C@H](CCC(=O)O)NC(=O)[C@H](Cc1c[nH]c2ccccc12)NC(=O)[C@H](CCC(=O)O)NC(=O)[C@H](CCSC)NC(=O)[C@H](Cc1c[nH]c2ccccc12)NC(=O)[C@@H](NC(=O)[C@H](CCSC)NC(=O)[C@H](CCC(=O)O)NC(=O)[C@H](CC(N)=O)NC(=O)[C@H](Cc1c[nH]c2ccccc12)NC(=O)[C@H](CCC(=O)O)NC(=O)[C@@H](NC(C)=O)C(C)C)[C@@H](C)O)C(=O)N[C@@H](CCC(=O)O)C(=O)N[C@@H](CC(N)=O)C(=O)N[C@@H](Cc1ccc(O)cc1)C(=O)N[C@H](C(=O)N[C@@H](CCCCN)C(=O)N[C@@H](CC(C)C)C(=O)N[C@H](C(=O)N[C@@H](Cc1ccc(O)cc1)C(=O)N[C@@H](CCCCN)C(=O)N[C@H](C(=O)N[C@@H](CC(C)C)C(=O)N[C@@H](CCC(=O)O)C(=O)N[C@@H](CCC(=O)O)C(=O)N[C@@H](CO)C(=O)N[C@@H](CCC(N)=O)C(=O)N[C@@H](CCC(=O)O)C(=O)N[C@@H](CCC(N)=O)C(N)=O)[C@@H](C)CC)[C@@H](C)CC)[C@@H](C)O` [CP32M] (Ac-VEWNEMTWMEWEREIENYTKLIYKILEESQEQ-NH2), the IC50 in the experiment on HIV-1NL4-3 pseudovirus is 1.8 ± 0.2 nM; with wild-type HIV-1NL4-3, 1 ± 0.2 nM.

Consider enfuvirtide, for which the IC50 in the experiment on wild-type HIV-1NL4-3 was found to be 48.6 ± 1.2 nM; in the experiment with HIV-1 NL4-3 WT, 52.1 ± 8.5 nM; in the experiment on HIV-1 NL4-3 I37T it was 552 ± 123 nM; in the experiment with HIV-1 NL4-3 V38A, 1840 ± 56.1 nM; with HIV-1 NL4-3 V38M, 378 ± 41.7 nM; in the experiment with HIV-1 NL4-3 Q40H, 1320 ± 92.3 nM. For the same compound, the IC50 was 367 ± 47.4 nM with HIV-1 NL4-3 N43K, 203 ± 12.6 nM in the experiment on HIV-1 NL4-3 D36S/V38M and > 2250 nM with HIV-1 NL4-3 I37T/N43K.

On to `CC[C@H](C)[C@H](NC(=O)[C@H](C)NC(=O)[C@H](CCCNC(=N)N)NC(=O)[C@H](CC(=O)O)NC(=O)[C@H](Cc1c[nH]c2ccccc12)NC(=O)[C@H](C)NC(=O)[C@H](CCC(=O)O)NC(=O)[C@H](Cc1c[nH]c2ccccc12)NC(=O)[C@@H](NC(=O)[C@@H](NC(C)=O)[C@@H](C)O)[C@@H](C)O)C(=O)N[C@@H](C)C(=O)N[C@@H](CCC(=O)O)C(=O)N[C@@H](Cc1ccc(O)cc1)C(=O)N[C@@H](C)C(=O)N[C@@H](C)C(=O)N[C@@H](CCCNC(=N)N)C(=O)N[C@H](C(=O)N[C@@H](CCC(=O)O)C(=O)N[C@@H](C)C(=O)N[C@@H](CC(C)C)C(=O)N[C@H](C(=O)N[C@@H](CCCNC(=N)N)C(=O)N[C@@H](C)C(=O)N[C@@H](C)C(=O)N[C@@H](CCC(N)=O)C(=O)N[C@@H](CCC(=O)O)C(=O)N[C@@H](CCC(N)=O)C(=O)N[C@@H](CCC(N)=O)C(=O)N[C@@H](CCC(=O)O)C(=O)N[C@@H](CCCCN)C(=O)N[C@@H](CC(N)=O)C(=O)N[C@@H](CCC(=O)O)C(=O)N[C@@H](C)C(=O)N[C@@H](C)C(=O)N[C@@H](CC(C)C)C(=O)N[C@@H](CCCNC(=N)N)C(=O)N[C@@H](CCC(=O)O)C(=O)N[C@@H](CC(C)C)C(N)=O)[C@@H](C)CC)[C@@H](C)CC` [T2635], for which, in the experiment on HIV-1NL4-3 pseudovirus, the IC50 was 1.1 ± 0.1 nM.

Consider `CC[C@H](C)[C@H](NC(=O)[C@H](CCC(=O)O)NC(=O)[C@H](CCCNC(=N)N)NC(=O)[C@H](CCC(=O)O)NC(=O)[C@H](Cc1c[nH]c2ccccc12)NC(=O)[C@@H](NC(=O)[C@H](CCC(=O)O)NC(=O)[C@H](Cc1c[nH]c2ccccc12)NC(=O)[C@H](CO)NC(C)=O)[C@@H](C)O)C(=O)N[C@@H](CCC(=O)O)C(=O)N[C@@H](CC(N)=O)C(=O)N[C@@H](Cc1ccc(O)cc1)C(=O)N[C@H](C(=O)N[C@@H](CCCNC(=N)N)C(=O)N[C@@H](CCC(N)=O)C(=O)N[C@H](C(=O)N[C@@H](Cc1ccc(O)cc1)C(=O)N[C@@H](CCCNC(=N)N)C(=O)N[C@H](C(=O)N[C@@H](CC(C)C)C(=O)N[C@@H](CCC(=O)O)C(=O)N[C@@H](CCC(=O)O)C(=O)N[C@@H](CO)C(=O)N[C@@H](CCC(N)=O)C(=O)N[C@@H](CCC(=O)O)C(=O)N[C@@H](CCC(N)=O)C(=O)N[C@@H](CCC(N)=O)C(=O)N[C@@H](CC(=O)O)C(=O)N[C@@H](CCCNC(=N)N)C(=O)N[C@@H](CC(N)=O)C(=O)N[C@@H](CCC(=O)O)C(=O)N[C@@H](CCCNC(=N)N)C(=O)N[C@@H](CC(=O)O)C(=O)N[C@@H](CC(C)C)C(=O)N[C@@H](CC(C)C)C(=O)N[C@@H](CCC(=O)O)C(N)=O)[C@@H](C)CC)[C@@H](C)CC)[C@@H](C)O` [SFT, Sifuvirtide] (Ac-SWETWEREIENYTRQIYRILEESQEQQDRNERDLLE-NH2), for which the IC50 in the experiment on HIV-1NL4-3 pseudovirus was determined as 2.6 ± 0.1 nM; in the experiment on wild-type HIV-1NL4-3, 1.5 ± 0.1 nM.

The record behind these values is PMC4046051, “Two M-T hook residues greatly improve the antiviral activity and resistance profile of the HIV-1 fusion inhibitor SC29EK” (Retrovirology, 2014).
